Source: patent US8247211B2, “Glycopeptide antibiotics” (American Cyanamid Company, priority 2001, dated 2012)

Legend:
Assay in all cases: In vitro antibacterial evaluation: minimum inhibitory concentration (MIC), broth dilution method
Type in all cases: cell-based
Settings in all cases: 18 hours at 35° C.
[1] = system: Enterococcus sp.
Procedure, shortened: (§1)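 Using Muller-Hinton II […] and an inoculum of 5×10^5 CFU/mL, antibiotic dilutions from 64 down to 0.06 μg/mL were tested following NCCLS M7-A2. The MIC is the lowest concentration inhibiting growth, including in methicillin-, penicillin- or vancomycin-resistant clinical isolates.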

[2] = system: Escherichia coli
Procedure, shortened: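 First, organisms are seeded at 5×10^5 CFU/mL into Muller-Hinton II […]. Next, antibiotic is applied across 64-0.06 μg/mL by broth dilution (NCCLS M7-A2). Finally, the lowest inhibitory concentration is recorded as MIC.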

[3] = system: Staphylococcus sp.
Procedure, shortened: as §1

[4] = system: Streptococcus sp.
Procedure, shortened: as §1

With “γ-O-[(Heptylamino)carbonyl]-cyclo[glycyl-β-methylphenylalanyl-O-(4-O-hexopyranosylhexopyranosyl)tyrosyl-3-(2-iminoimidazolidin-4-yl)seryl-3-(3-hexopyranosyl-2-iminoimidazolidin-4-yl)serylseryl] [Example 253b]” the “MIC Enterococcus avium (GC 4558)” value ([1]; Enterococcus avium (GC 4558)) was 8 µg/mL, the “MIC Enterococcus faecalis (ATCC 29212)” value ([1]; Enterococcus faecalis (ATCC 29212)) was 8 µg/mL and the “MIC Enterococcus faecalis (GC 2242)” value ([1]; Enterococcus faecalis (GC 2242)) was 8 µg/mL. For the same substance, the “MIC Enterococcus faecalis (GC 2691)” value ([1]; Enterococcus faecalis (GC 2691)) was 8 µg/mL, the “MIC Enterococcus faecalis (GC 3059)” value ([1]; Enterococcus faecalis (GC 3059)) was 16 µg/mL and the “MIC Enterococcus faecalis (GC 4552)” value ([1]; Enterococcus faecalis (GC 4552)) was 8 µg/mL. The “MIC Enterococcus faecalis (GC 4553)” value ([1]; Enterococcus faecalis (GC 4553)) was 8 µg/mL, the “MIC Enterococcus faecalis (GC 4554)” value ([1]; Enterococcus faecalis (GC 4554)) was 8 µg/mL and the “MIC Enterococcus faecalis (GC 6189)” value ([1]; Enterococcus faecalis (GC 6189)) was 8 µg/mL. For the same substance, the “MIC Enterococcus faecium (GC 2243)” value ([1]; Enterococcus faecium (GC 2243)) was 8 µg/mL, the “MIC Enterococcus faecium (GC 4556)” value ([1]; Enterococcus faecium (GC 4556)) was 8 µg/mL and the “MIC Enterococcus faecium (GC 4557)” value ([1]; Enterococcus faecium (GC 4557)) was 4 µg/mL. For the same substance, the “MIC Enterococcus faecalis (ATCC 29212)” value ([1]; broth dilution, strain ATCC 29212) was 8 µg/mL, the “MIC Enterococcus faecalis (GC 2242)” value ([1]; broth dilution, strain GC 2242) was 8 µg/mL and the “MIC Enterococcus faecium (GC 2243)” value ([1]; broth dilution, strain GC 2243) was 8 µg/mL. The “MIC Enterococcus faecalis (GC 2691)” value ([1]; broth dilution, strain GC 2691) was 8 µg/mL, the “MIC Enterococcus faecalis (GC 3059)” value ([1]; broth dilution, strain GC 3059) was 16 µg/mL and the “MIC Enterococcus faecalis (GC 4552)” value ([1]; broth dilution, strain GC 4552) was 8 µg/mL. For the same substance, the “MIC Enterococcus faecalis (GC 4553)” value ([1]; broth dilution, strain GC 4553) was 8 µg/mL, the “MIC Enterococcus faecalis (GC 4554)” value ([1]; broth dilution, strain GC 4554) was 8 µg/mL and the “MIC Enterococcus faecium (GC 4556)” value ([1]; broth dilution, strain GC 4556) was 8 µg/mL. The “MIC Enterococcus faecium (GC 4557)” value ([1]; broth dilution, strain GC 4557) was 4 µg/mL, the “MIC Enterococcus avium (GC 4558)” value ([1]; broth dilution, strain GC 4558) was 8 µg/mL and the “MIC Enterococcus faecalis (GC 6189)” value ([1]; broth dilution, strain GC 6189) was 8 µg/mL. The “MIC Escherichia coli (ATCC 25922)” value ([2]; Escherichia coli (ATCC 25922)) was 64 µg/mL, the “MIC Escherichia coli (GC 4559)” value ([2]; Escherichia coli (GC 4559)) was 64 µg/mL and the “MIC Escherichia coli (GC 4560)” value ([2]; Escherichia coli (GC 4560)) was 2 µg/mL. For the same substance, the “MIC Coagulase Negative Staphylococcus (GC 4547)” value ([3]; Coagulase Negative Staphylococcus (GC 4547)) was 4 µg/mL, the “MIC Coagulase Negative Staphylococcus (GC 4548)” value ([3]; Coagulase Negative Staphylococcus (GC 4548)) was 2 µg/mL and the “MIC Coagulase Negative Staphylococcus (GC 4549)” value ([3]; Coagulase Negative Staphylococcus (GC 4549)) was 2 µg/mL. The “MIC Coagulase Negative Staphylococcus (GC 4551)” value ([3]; Coagulase Negative Staphylococcus (GC 4551)) was 4 µg/mL, the “MIC Coagulase Negative Staphylococcus (GC 6257)” value ([3]; Coagulase Negative Staphylococcus (GC 6257)) was 2 µg/mL and the “MIC Staphylococcus aureus (ATCC 29213)” value ([3]; Staphylococcus aureus (ATCC 29213)) was 4 µg/mL. The “MIC Staphylococcus aureus (GC 1131)” value ([3]; Staphylococcus aureus (GC 1131)) was 4 µg/mL, the “MIC Staphylococcus aureus (GC 3051)” value ([3]; Staphylococcus aureus (GC 3051)) was 2 µg/mL and the “MIC Staphylococcus aureus (GC 3053)” value ([3]; Staphylococcus aureus (GC 3053)) was 8 µg/mL. For the same substance, the “MIC Staphylococcus aureus (GC 4541)” value ([3]; Staphylococcus aureus (GC 4541)) was 2 µg/mL, the “MIC Staphylococcus aureus (GC 4542)” value ([3]; Staphylococcus aureus (GC 4542)) was 4 µg/mL and the “MIC Staphylococcus aureus (GC 4544)” value ([3]; Staphylococcus aureus (GC 4544)) was 4 µg/mL. The “MIC Staphylococcus aureus (GC 4545)” value ([3]; Staphylococcus aureus (GC 4545)) was 2 µg/mL, the “MIC Staphylococcus aureus-SMITH (GC 4543)” value ([3]; Staphylococcus aureus-SMITH (GC 4543)) was 2 µg/mL and the “MIC Staphylococcus haemolyticus (GC 4546)” value ([3]; Staphylococcus haemolyticus (GC 4546)) was 2 µg/mL. The “MIC Staphylococcus aureus (ATCC 29213)” value ([3]; broth dilution, strain ATCC 29213) was 4 µg/mL, the “MIC Staphylococcus aureus (GC 1131)” value ([3]; broth dilution, strain GC 1131) was 4 µg/mL and the “MIC Staphylococcus aureus (GC 3051)” value ([3]; broth dilution, strain GC 3051) was 2 µg/mL. The “MIC Staphylococcus aureus (GC 3053)” value ([3]; broth dilution, strain GC 3053) was 8 µg/mL, the “MIC Staphylococcus aureus (GC 4541)” value ([3]; broth dilution, strain GC 4541) was 2 µg/mL and the “MIC Staphylococcus aureus (GC 4542)” value ([3]; broth dilution, strain GC 4542) was 4 µg/mL. For the same substance, the “MIC Staphylococcus aureus-SMITH (GC 4543)” value ([3]; broth dilution, strain GC 4543) was 2 µg/mL, the “MIC Staphylococcus aureus (GC 4544)” value ([3]; broth dilution, strain GC 4544) was 4 µg/mL and the “MIC Staphylococcus aureus (GC 4545)” value ([3]; broth dilution, strain GC 4545) was 2 µg/mL. For the same substance, the “MIC Staphylococcus haemolyticus (GC 4546)” value ([3]; broth dilution, strain GC 4546) was 2 µg/mL, the “MIC Coagulase Negative Staphylococcus (GC 4547)” value ([3]; broth dilution, strain GC 4547) was 4 µg/mL and the “MIC Coagulase Negative Staphylococcus (GC 4548)” value ([3]; broth dilution, strain GC 4548) was 2 µg/mL. For the same substance, the “MIC Coagulase Negative Staphylococcus (GC 4549)” value ([3]; broth dilution, strain GC 4549) was 2 µg/mL, the “MIC Coagulase Negative Staphylococcus (GC 4551)” value ([3]; broth dilution, strain GC 4551) was 4 µg/mL and the “MIC Coagulase Negative Staphylococcus (GC 6257)” value ([3]; broth dilution, strain GC 6257) was 2 µg/mL. For the same substance, the “MIC Streptococcus agalactiae (GC 4564)” value ([4]; Streptococcus agalactiae (GC 4564)) was 1 µg/mL, the “MIC Streptococcus pneumoniae (ATCC 6301)” value ([4]; Streptococcus pneumoniae (ATCC 6301)) was 0.25 µg/mL and the “MIC Streptococcus pneumoniae (GC 1894)” value ([4]; Streptococcus pneumoniae (GC 1894)) was <0.06 µg/mL. The “MIC Streptococcus pneumoniae (GC 4565)” value ([4]; Streptococcus pneumoniae (GC 4565)) was 0.25 µg/mL, the “MIC Streptococcus pyogenes (GC 4563)” value ([4]; Streptococcus pyogenes (GC 4563)) was 1 µg/mL and the “MIC Streptococcus pneumoniae (ATCC 6301)” value ([4]; broth dilution, strain ATCC 6301) was 0.25 µg/mL. The “MIC Streptococcus pneumoniae (GC 1894)” value ([4]; broth dilution, strain GC 1894) was <0.06 µg/mL, the “MIC Streptococcus pyogenes (GC 4563)” value ([4]; broth dilution, strain GC 4563) was 1 µg/mL and the “MIC Streptococcus agalactiae (GC 4564)” value ([4]; broth dilution, strain GC 4564) was 1 µg/mL. For the same substance, the “MIC Streptococcus pneumoniae (GC 4565)” value ([4]; broth dilution, strain GC 4565) was 0.25 µg/mL.
